Reference: PMC10648541, “Design, Synthesis, and Antiproliferative Activity of Selective Histone Deacetylases 6 Inhibitors Containing a Tetrahydropyridopyrimidine Scaffold” (Molecules, 2023)
Read-outs that look alike come from different tables or passages of the source.

Legend:
[1] = test system: RPMI-8226; test: Antiproliferative assay (Alamar blue, 72 h), RPMI-8226; type: cell-based, human; conditions: RPMI-8226 cells, three independent experiments, SD < 10%, read-out: Antiproliferative effect IC50, RPMI-8226
Experimental: The cells were cultured in IMDM (Gibco) medium with 20% FBS (Lonsera), 100 U/mL penicillin, and 100 µg/mL streptomycin (Solarbio). All cells were maintained at 37 °C in a humidified atmosphere of 5% CO2 in air. Briefly, 100 µL cell suspension or completed medium was plated into a 96-well plate. Compounds were added and incubated for 72 h. Then, 22 µL Alamar blue solution (1 mM) was pipetted into each well of a 96-well plate, and the plate was incubated for an additional 5~6 h. The absorbance (OD) was read at 530/590 nm. Data were normalized to vehicle groups (DMSO) and represented as the means of three independent measurements with standard errors of <20%. The IC50 values were calculated using Prism 5.0.

[2] = test system: HCT116; test: Antiproliferative assay (Alamar blue, 72 h), HCT116; type: cell-based; conditions: Homo sapiens, HCT-116, HCT116 cells, three independent experiments, SD < 10%, read-out: Antiproliferative effect IC50, HCT116
[3] = test system: HL60; test: Antiproliferative assay (Alamar blue, 72 h), HL60; type: cell-based; conditions: Homo sapiens, HL-60, HL60 cells, three independent experiments, SD < 10%, read-out: Antiproliferative effect IC50, HL60
[4] = target: T1, HDAC1 (Homo sapiens, UniProt Q13547); test: In vitro HDAC enzyme assay (Reaction Biology Corporation), HDAC1; type: biochemical; conditions: Table 1; duplicate, SD < 15%
T1 construct: purchased Reaction Biology Corporation

[5] = target: T2, HDAC6 (Homo sapiens, UniProt Q9UBN7); test: In vitro HDAC enzyme assay (Reaction Biology Corporation), HDAC6; type: biochemical; conditions: Table 1
T2 construct: purchased Reaction Biology Corporation
T2 sequence (Q9UBN7 1-1215): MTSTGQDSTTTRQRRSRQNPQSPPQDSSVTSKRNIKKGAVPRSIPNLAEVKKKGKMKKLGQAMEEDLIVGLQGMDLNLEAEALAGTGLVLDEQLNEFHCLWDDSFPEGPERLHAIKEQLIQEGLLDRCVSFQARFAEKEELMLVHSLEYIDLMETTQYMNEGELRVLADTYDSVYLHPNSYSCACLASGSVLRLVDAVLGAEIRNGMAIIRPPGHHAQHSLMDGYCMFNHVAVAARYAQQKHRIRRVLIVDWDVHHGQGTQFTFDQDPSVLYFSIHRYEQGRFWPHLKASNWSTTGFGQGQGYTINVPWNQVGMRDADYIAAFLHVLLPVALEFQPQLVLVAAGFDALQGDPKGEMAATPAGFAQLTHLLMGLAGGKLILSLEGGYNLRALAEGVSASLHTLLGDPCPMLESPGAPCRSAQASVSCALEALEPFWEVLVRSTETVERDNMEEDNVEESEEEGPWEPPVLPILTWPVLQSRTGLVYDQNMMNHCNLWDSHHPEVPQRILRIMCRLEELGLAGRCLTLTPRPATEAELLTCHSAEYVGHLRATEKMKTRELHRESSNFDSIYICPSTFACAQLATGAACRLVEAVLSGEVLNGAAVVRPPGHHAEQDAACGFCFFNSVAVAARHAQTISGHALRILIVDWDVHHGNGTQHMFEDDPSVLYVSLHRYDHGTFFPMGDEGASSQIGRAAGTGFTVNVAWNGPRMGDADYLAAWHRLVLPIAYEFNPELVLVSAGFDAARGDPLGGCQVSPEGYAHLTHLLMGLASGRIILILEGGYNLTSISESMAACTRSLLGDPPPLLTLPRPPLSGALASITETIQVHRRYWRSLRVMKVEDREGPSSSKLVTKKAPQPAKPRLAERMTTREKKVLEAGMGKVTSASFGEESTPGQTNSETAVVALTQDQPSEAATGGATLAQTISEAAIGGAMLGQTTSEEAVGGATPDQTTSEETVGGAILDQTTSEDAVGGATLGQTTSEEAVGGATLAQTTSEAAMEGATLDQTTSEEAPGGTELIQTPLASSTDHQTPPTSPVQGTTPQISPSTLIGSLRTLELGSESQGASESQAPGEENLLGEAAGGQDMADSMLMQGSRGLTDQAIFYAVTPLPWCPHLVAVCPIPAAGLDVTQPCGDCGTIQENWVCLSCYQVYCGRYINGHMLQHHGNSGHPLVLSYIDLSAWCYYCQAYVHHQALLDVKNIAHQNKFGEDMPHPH

[6] = test system: acetylated α-tubulin; test: Western blot, acetylated α-tubulin in RPMI-8226 cells; type: cell-based, human; conditions: 24 h, 10 μM, compared to the vehicle
Experimental: (§1) RPMI-8226 cells (1 × 10^6) were seeded overnight and incubated with compound 8f for 24 h on indicated concentrations. Cell extract was prepared by lysing cultured cells with a mammalian protein extraction reagent supplemented with EDTA-free protease inhibitor for 15 min. SDS-PAGE and immunoblot analysis were conducted as described. Antibodies for Ac-H3 (abcom, AB32129) and Ac-ɑ-tubulin (Cell Signaling, 2144) were used.

[7] = test system: acetylated histone 3 (H3); test: Western blot, acetylated histone 3 in RPMI-8226 cells; type: cell-based, human; conditions: 24 h, 10 μM, compared to the vehicle
Experimental: as §1

T1 sequence (Q13547 whole entry): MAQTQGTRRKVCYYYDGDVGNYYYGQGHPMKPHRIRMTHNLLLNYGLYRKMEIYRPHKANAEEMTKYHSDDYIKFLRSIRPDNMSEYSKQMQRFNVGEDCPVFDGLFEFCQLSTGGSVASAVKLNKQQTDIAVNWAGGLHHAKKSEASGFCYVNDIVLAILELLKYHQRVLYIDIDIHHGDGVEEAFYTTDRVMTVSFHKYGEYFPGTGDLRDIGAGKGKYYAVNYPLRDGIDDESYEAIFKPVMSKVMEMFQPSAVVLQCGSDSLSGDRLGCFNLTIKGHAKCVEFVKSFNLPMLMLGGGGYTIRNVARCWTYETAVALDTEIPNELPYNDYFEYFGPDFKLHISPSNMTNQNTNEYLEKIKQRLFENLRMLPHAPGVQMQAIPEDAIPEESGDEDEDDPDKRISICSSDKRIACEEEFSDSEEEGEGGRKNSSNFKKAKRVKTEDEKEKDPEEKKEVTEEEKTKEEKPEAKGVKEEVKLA

Row | IC50 ([1]; Homo sapiens) [µM] | IC50 [2] [µM] | IC50 [3] [µM] | melting point [°C] | SMILES | also measured
1 |  |  |  | 110 to 112 | Cc1ccc(-c2nc3c(c(-c4ccc(C)cc4)n2)CCN(C(=O)CCCCCCC(=O)NO)C3)cc1 [Compound 8b, 8-(2,4-di-p-tolyl-5,8-dihydropyrido [3,4-d]pyrimidin-7(6H)-yl)-N-hydroxy-8-oxooctanamide] | 
2 | 4.63 | 4.72 | 3.78 | 117 to 118 | COc1ccc(-c2nc3c(c(-c4ccc(OC)cc4)n2)CCN(C(=O)CCCCCCC(=O)NO)C3)cc1 [Compound 8c, 8-(2,4-Bis(4-methoxyphenyl)-5,8-dihydropyrido [3,4-d]pyrimidin-7(6H)-yl)-N-hydroxy-8-oxooctanamide] | IC50 [4]: 0.472 µM
3 |  |  |  | 128 to 129 | O=C(CCCCCCC(=O)N1CCc2c(nc(-c3cccs3)nc2-c2cccs2)C1)NO [Compound 8g, 8-(2,4-Di(thiophen-2-yl)-5,8-dihydropyrido [3,4-d]pyrimidin-7(6H)-yl)-N-hydroxy-8-oxooctanamide] | 
4 |  |  |  | 145 to 146 | O=C(CCCCCCC(=O)N1CCc2c(nc(-c3ccc(C(F)(F)F)cc3)nc2-c2ccc(C(F)(F)F)cc2)C1)NO [Compound 8h, 8-(2,4-Bis(4-(trifluoromethyl)phenyl)-5,8-dihydropyrido [3,4-d]pyrimidin-7(6H)-yl)-N-hydroxy-8-oxooctanamide] | IC50 [4]: 0.551 µM; Selectivity Index ([5]; HDAC6 against HDAC1): 26; IC50 ([5]; duplicate, SD < 15%): 0.0215 µM

Further lines, the compound ahead of its results:

Row | SMILES | IC50 ([1]; Homo sapiens) [µM] | IC50 [2] [µM] | IC50 [3] [µM] | melting point [°C] | also measured
5 | O=C(CCCCCCNC(=O)c1cnc(N(c2ccccc2)c2ccccc2)nc1)NO [Compound 1, reference compound] | 1.7 | 6.5 | 4.1 |  | 
6 | O=C(CCCCCCC(=O)N1CCc2c(nc(-c3ccccc3)nc2-c2ccccc2)C1)NO [Compound 8a, 8-(2,4-Diphenyl-5,8-dihydropyrido [3,4-d]pyrimidin-7(6H)-yl)-N-hydroxy-8-oxooctanamide] | 16.3 | 23.4 | 12.5 | 115 to 117 | 
7 | O=C(CCCCCCC(=O)N1CCc2c(nc(-c3ccoc3)nc2-c2ccoc2)C1)NO [Compound 8d, 8-(2,4-Di(furan-3-yl)-5,8-dihydropyrido [3,4-d]pyrimidin-7(6H)-yl)-N-hydroxy-8-oxooctanamide] |  |  |  | 104 to 106 | 
8 | O=C(CCCCCCC(=O)N1CCc2c(nc(-c3ccsc3)nc2-c2ccsc2)C1)NO [Compound 8e, 8-(2,4-Di(thiophen-3-yl)-5,8-dihydropyrido [3,4-d]pyrimidin-7(6H)-yl)-N-hydroxy-8-oxooctanamide] |  |  |  | 123 to 124 | 
9 | O=C(CCCCCCC(=O)Nc1ccccc1)NO [SAHA, reference compound] |  |  |  |  | IC50 [1]: 0.66 µM; levels of acetylated α-tubulin [6]: increased levels of both acetylated α-tubulin and acetylated histone H3 significantly; levels of acetylated histone H3 [7]: increased levels of both acetylated α-tubulin and acetylated histone H3 significantly
